GI50 data for 6 compounds are collected here from patent US20250136614A1, “2,7-SUBSTITUTED PYRROLO[2,1-F][1,2,4]TRIAZINE COMPOUND HAVING PROTEIN KINASE INHIBITORY ACTIVITY” (Magicbullettherapeutics Co., Ltd., priority 2021, published 2025).

The target in one assay is T1, Ba/F3 FLT3 (ITD/D835Y) (Homo sapiens, UniProt P36888, D835Y, cells depend on it, form not given).
T1 sequence (P36888 1-993 D835Y): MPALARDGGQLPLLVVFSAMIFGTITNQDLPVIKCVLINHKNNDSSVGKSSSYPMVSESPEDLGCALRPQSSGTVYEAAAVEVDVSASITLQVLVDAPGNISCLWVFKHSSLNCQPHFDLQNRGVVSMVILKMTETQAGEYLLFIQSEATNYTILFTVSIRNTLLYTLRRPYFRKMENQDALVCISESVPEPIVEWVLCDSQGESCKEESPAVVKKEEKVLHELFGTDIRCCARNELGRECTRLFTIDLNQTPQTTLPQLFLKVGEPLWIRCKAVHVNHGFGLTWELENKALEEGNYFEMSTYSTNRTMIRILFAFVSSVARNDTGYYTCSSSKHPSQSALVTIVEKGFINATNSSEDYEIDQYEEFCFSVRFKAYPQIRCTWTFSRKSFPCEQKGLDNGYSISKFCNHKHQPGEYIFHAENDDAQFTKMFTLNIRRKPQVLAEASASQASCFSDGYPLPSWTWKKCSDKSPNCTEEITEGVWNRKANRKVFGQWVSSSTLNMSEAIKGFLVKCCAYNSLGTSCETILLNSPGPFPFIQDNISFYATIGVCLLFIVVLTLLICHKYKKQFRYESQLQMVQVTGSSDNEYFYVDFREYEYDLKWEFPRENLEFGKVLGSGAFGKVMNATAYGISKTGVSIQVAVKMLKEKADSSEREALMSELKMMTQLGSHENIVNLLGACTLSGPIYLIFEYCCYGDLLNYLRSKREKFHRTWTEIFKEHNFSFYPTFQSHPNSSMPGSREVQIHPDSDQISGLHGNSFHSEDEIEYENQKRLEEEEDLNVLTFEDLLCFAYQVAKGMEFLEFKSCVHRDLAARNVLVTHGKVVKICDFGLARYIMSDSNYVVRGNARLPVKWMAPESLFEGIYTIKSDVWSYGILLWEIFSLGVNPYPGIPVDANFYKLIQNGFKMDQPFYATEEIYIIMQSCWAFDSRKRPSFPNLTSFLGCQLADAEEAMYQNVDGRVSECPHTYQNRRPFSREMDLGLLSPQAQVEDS
Briefly: Ba/F3 cell growth inhibition (CellTiter-Glo, 72 hours). Type of assay: cell-based. Conditions: read-out: Ba/F3 GI50s (μM) FLT3 (ITD/D835Y). (In general: Cellular ATP, detected with luciferase, serves as a proxy for viable cell number.)

Assay [1] deals with T2, Ba/F3 FLT3 (ITD/D835YF691L) (Homo sapiens, UniProt P36888, F691L/D835Y, cells depend on it, form not given).
T2 sequence (P36888 1-993 F691L/D835Y): T1 sequence (P36888 1-993 D835Y) with F691L
The assay is described as above. Type of assay: cell-based. The following applies: read-out: Ba/F3 GI50s (μM) FLT3 (ITD/D835YF691L).

Positions count from the first letter of the chain named.

`CS(=O)(=O)Nc1cccc(-c2ccc3cnc(Nc4ccc(N5CCN(CCCCCOc6cccc7c6C(=O)N(C6CCC(=O)NC6=O)C7=O)CC5)cc4)nn23)c1` (stereo not drawn) [Example 39]: the GI50 (at Ba/F3 FLT3 (ITD/D835Y); in assay [1]) was ≥ 10 µM each time.
As for `CS(=O)(=O)Nc1cccc(-c2ccc3cnc(Nc4ccc(N5CCN(CCCOc6cccc7c6C(=O)N(C6CCC(=O)NC6=O)C7=O)CC5)cc4)nn23)c1` (stereo not drawn) [Example 40], the GI50 (on Ba/F3 FLT3 (ITD/D835Y); in assay [1]) was < 1 µM each time.
For the compound `CS(=O)(=O)Nc1cccc(-c2ccc3cnc(Nc4ccc(N5CCN(CCCCCCCOc6cccc7c6C(=O)N(C6CCC(=O)NC6=O)C7=O)CC5)cc4)nn23)c1` (stereo not drawn) [Example 41], the GI50 was 1 to 10 µM on Ba/F3 FLT3 (ITD/D835Y) and < 1 µM in assay [1].
The corresponding values for `CS(=O)(=O)Nc1cccc(-c2ccc3cnc(Nc4ccc(N5CCN(CCCCCCCCCCCOc6cccc7c6C(=O)N(C6CCC(=O)NC6=O)C7=O)CC5)cc4)nn23)c1` (stereo not drawn) [Example 42] are 1 to 10 µM and 1 to 10 µM.
For the compound `Cc1ncsc1-c1ccc(CNC(=O)[C@@H]2C[C@@H](O)CN2C(=O)[C@@H](NC(=O)COCCN2CCN(c3ccc(Nc4ncc5ccc(-c6cccc(NS(C)(=O)=O)c6)n5n4)cc3)CC2)C(C)(C)C)cc1` [Example 83, (2S,4R)-1-((S)-3,3-dimethyl-2-(2-(2-(4-(4-((7-(3-(methanesulfonamido)phenyl)pyrrolo[2,1-f][1,2,4]triazin-2-yl)amino)phenyl)piperazin-1-yl)ethoxy)acetaamino)butanoyl)-4-hydroxy-N-(4-(4-methylthiazol-5-yl)benzyl)pyrrolidin-2-carboxamide], the GI50 on Ba/F3 FLT3 (ITD/D835Y) is < 1 µM; in assay [1], ≥ 10 µM.
The corresponding values for `Cc1ncsc1-c1ccc(CNC(=O)[C@@H]2C[C@@H](O)CN2C(=O)[C@@H](NC(=O)CCOCCOCCN2CCN(c3ccc(Nc4ncc5ccc(-c6cccc(NS(C)(=O)=O)c6)n5n4)cc3)CC2)C(C)(C)C)cc1` [Example 84, (2S,4R)-1-((S)-3,3-dimethyl-2-(3-(2-(2-(4-(4-((7-(3-(methanesulfonamido)phenyl)pyrrolo[2,1-f][1,2,4]triazin-2-yl)amino)phenyl)piperazin-1-yl)ethoxy)ethoxy)propanamido)butanoyl)-4-hydroxy-N-(4-(4-methylthiazol-5-yl)benzyl)pyrrolidin-2-carboxamide] are < 1 µM and ≥ 10 µM.
